# Tests used:
# Format in all cases: functional
# Cryptococcus neoformans [1] = experiment: Fungicidal activity against Cryptococcus neoformans PFCC 93-589 by broth microdilution assay
# Cryptococcus neoformans [2] = experiment: Antifungal activity against Cryptococcus neoformans PFCC 93-589 by broth microdilution assay
# Cryptococcus neoformans [3] = experiment: Antifungal activity against Cryptococcus neoformans PFCC 93-589 assessed as increase in extracellular potassium leakage at 2 times MIC incubated up to 12 hrs measured per mg dry weight of cell by spectrophotometric method; conditions: time hrs <=12
# Cryptococcus neoformans [4] = experiment: Antifungal activity against Cryptococcus neoformans PFCC 93-589 assessed as half minimum inhibitory concentration by broth microdilution assay
smiles,measurement,setting,value
C[C@@H]1[C@H](O)[C@@H](C)/C=C/C=C/C=C/C=C/C=C/C=C/C=C/[C@H](O[C@@H]2O[C@H](C)[C@@H](O)[C@H](N)[C@@H]2O)C[C@@H]2O[C@](O)(C[C@@H](O)C[C@@H](O)[C@H](O)CC[C@@H](O)C[C@@H](O)CC(=O)O[C@H]1C)C[C@H](O)[C@H]2C(=O)O [AMPHOTERICIN B],MFC,Cryptococcus neoformans [1],1 µg/mL
same,MIC,Cryptococcus neoformans [2],0.25 µg/mL
same,Activity,Cryptococcus neoformans [3],3.56 mM
same,MIC,Cryptococcus neoformans [4],0.125 µg/mL

# From ChEMBL document CHEMBL4814046, “Inhibitory effects and mechanism of antifungal action of the natural cyclic depsipeptide, aureobasidin A against Cryptococcus neoformans” (Bioorg Med Chem Lett, 2021)
